This data set in a line: Acute toxicity (LD50) in mice. Conditions: mouse, in vivo.

On to `CCCCCOC1C[C@@H]2[C@@H](/C=C/[C@H](O)CCCCC)[C@H](O)C[C@@H]2O1` (single isomer, unassigned; (-)) [(-)-2,3,3aβ,6aβ-Tetrahydro-2-pentyloxy-5α-hydroxy-4β-(3β-hydroxy-oct-1-trans-enyl)-cyclopentano[b]furan], for which the LD50 (as a rule, the dose at which mortality reaches 50%) came to 700 mg/kg.
